The values below come from article PMC9636434, “Discovery of small molecule agonists of the Relaxin Family Peptide Receptor 2” (Communications Biology, 2022).

Each structure is given as a SMILES string. “And” between values parts separate entries of the source, which are not always exact repeats. Identical values can stand only once.

One test has as its target T1, WT RXFP1 (Homo sapiens, UniProt Q9HBX9).
T1 construct: expressed in transfected cells; host or cells: HEK293T, transient transfection, pcDNA3.1/Zeo(+)
T1 sequence (Q9HBX9 1-757): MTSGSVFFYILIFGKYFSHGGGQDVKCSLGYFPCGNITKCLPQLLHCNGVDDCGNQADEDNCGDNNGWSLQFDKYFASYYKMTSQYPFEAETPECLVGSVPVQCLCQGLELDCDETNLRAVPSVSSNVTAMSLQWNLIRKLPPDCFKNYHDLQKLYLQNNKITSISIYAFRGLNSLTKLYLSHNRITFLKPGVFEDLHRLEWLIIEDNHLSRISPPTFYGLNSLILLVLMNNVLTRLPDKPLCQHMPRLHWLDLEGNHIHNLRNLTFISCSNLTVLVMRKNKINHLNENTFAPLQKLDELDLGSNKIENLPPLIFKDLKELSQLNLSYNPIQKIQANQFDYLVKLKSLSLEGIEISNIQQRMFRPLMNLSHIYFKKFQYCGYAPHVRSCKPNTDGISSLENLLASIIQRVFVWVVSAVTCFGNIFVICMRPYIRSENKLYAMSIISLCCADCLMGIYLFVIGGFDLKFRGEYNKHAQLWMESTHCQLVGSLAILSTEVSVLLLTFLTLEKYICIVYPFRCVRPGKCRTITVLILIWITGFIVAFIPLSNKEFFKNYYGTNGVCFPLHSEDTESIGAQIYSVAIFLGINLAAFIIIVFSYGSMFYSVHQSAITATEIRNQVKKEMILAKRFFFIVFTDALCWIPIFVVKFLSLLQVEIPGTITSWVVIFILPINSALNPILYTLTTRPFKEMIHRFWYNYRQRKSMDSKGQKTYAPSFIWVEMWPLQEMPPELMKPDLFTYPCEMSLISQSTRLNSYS
Nature of the test: HTRF cAMP assay in HEK293T cells transiently transfected with WT RXFP1. It is filed as cell-based. Here is the method:
Fig. 2 6641 is an allosteric agonist of RXFP2. a HEK-RXFP2 cells co-treated with serial dilutions of INSL3 B dimer antagonist and 30 nM INSL3 or 0.28 µM 6641. HTRF cAMP dose-response inhibition curves were normalized to activity without antagonist co-treatment as 0% inhibition. b HTRF cAMP assay in HEK293T cells transiently transfected with WT or chimeric receptors. Chimera RXFP2-1 contains the extracellular domain of RXFP2 and the transmembrane domain of RXFP1, while chimera RXFP1-2 contains the extracellular domain of RXFP1 and the transmembrane domain of RXFP2. For each receptor, cAMP response induced by INSL3 and 6641 was normalized to FSK (2 µM) as 100% efficacy and DMSO vehicle as 0% efficacy. Emax and EC50 were calculated using four parameter nonlinear fit dose-response curves. Results are expressed as mean ± SEM of 3 independent experiments. Diagrams of the chimeric receptors were produced using GPCRdb.org[58], [59].
Complementary RXFP2-1 and RXFP1-2 chimeric receptors were used to further investigate the involvement of the RXFP2 extracellular and transmembrane domains on 6641 activity. RXFP2-1 has the extracellular domain of RXFP2 and transmembrane domain of RXFP1, and RXFP1-2 is its complement.
The HTRF Gs dynamic cAMP assay kit (CisBio, Bedford, MA) was used to measure intracellular cAMP accumulation in HEK293T cells (ATCC, Manassas, VA)[56]. […] The cell stock was verified mycoplasma free and authenticated by ATCC. Transient transfection was accomplished by treating cells in a 6-well plate with a mixture of 2 μg plasmid and 6 μL Lipofectamine 2000 (Invitrogen, Waltham, MA) per manufacturer’s protocol and incubating overnight. For cAMP measurement in 96-well format, HEK293T cells stably transfected with human RXFP2 (HEK-RXFP2), human RXFP1 (HEK-RXFP1), mouse Rxfp1 (HEK-Rxfp1) or transiently transfected with human RXFP1-RXFP2 chimeric receptors were seeded between 7500 and 30,000 cells per well, depending on cell line responsiveness, in serum-free DMEM medium and incubated overnight at 37 °C, 5% CO2. After 18 h, cells were treated with a titration of compound, 2 μM forskolin, or DMSO vehicle. Control wells were also treated with a titration of INSL3 (Phoenix Pharmaceuticals, Burlingame, CA) or human recombinant relaxin 2 (Peprotech, Cranbury, NJ). For the RXFP2 antagonist experiment, cells were co-treated with 0.28 μM compound or 30 nM INSL3 and a titration of the INSL3 B dimer antagonist[38],[39]. For the INSL3 allosteric modulation experiment, cells were co-treated with 0.025, 0.0025, or 0.00025 μM of compound and a titration of INSL3. […] Plates were incubated for 1 h at room temperature and the signal was read on a CLARIOstar plate reader (BMG Labtech, Ortenberg, Germany) at 665 and 620 nm emission wavelengths.

In the next test the target is T2, human FSHR (Homo sapiens, UniProt P23945).
T2 sequence (P23945 18-695): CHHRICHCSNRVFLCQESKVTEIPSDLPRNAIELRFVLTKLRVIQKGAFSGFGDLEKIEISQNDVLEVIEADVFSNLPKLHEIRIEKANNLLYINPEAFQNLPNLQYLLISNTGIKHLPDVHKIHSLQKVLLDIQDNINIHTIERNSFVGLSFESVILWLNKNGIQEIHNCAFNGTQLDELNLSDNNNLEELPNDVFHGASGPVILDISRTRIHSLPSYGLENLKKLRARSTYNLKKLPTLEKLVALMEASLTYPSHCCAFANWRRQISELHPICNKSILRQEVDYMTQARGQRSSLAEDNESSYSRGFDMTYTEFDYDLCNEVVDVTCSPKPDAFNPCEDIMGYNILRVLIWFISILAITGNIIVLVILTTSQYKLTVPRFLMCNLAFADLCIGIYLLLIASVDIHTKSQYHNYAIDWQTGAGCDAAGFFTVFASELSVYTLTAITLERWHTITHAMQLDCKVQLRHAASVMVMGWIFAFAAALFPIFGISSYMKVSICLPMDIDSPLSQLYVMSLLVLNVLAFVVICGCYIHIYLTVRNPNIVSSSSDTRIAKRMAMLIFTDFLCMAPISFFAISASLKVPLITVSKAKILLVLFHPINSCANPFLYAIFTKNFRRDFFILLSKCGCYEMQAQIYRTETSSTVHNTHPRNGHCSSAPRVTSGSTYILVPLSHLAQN
The test is described as follows: HitHunter cAMP XS+ assay, cAMP Hunter cell line FSHR. It is filed as cell-based. The conditions noted are these: for RLU: replicates (1),(2). An excerpt: Results are reported as raw RLU values and represent the
mean ± SEM of 2 technical replicates.

On to `O=C1Nc2ccc(-c3cc(C(F)(F)F)cc(C(F)(F)F)c3)cc2C(=O)N2CCN(C(=O)COc3ccc(OC(F)(F)F)cc3I)C[C@@H]12` [compound 6641], for which the “EC50 (1)-(3)” value on WT RXFP1 (6641, individual experiments) is reported as “Inactive”. Further, on WT RXFP1 (6641, mean of 3), the “EC50 (AVERAGE)” value is given as “Inactive”. Besides, the “Emax (1)-(3)” value on WT RXFP1 (individual experiments, FSK (2 µM) = 100% efficacy) is “Inactive”. Moreover, the “Emax (AVERAGE)” value at WT RXFP1 (mean of 3, FSK (2 µM) = 100% efficacy) is on record as “Inactive”. Moreover, on human FSHR (Hit Hunter cAMP assay), the “cAMP response through FSHR” value is given as “did not result in an increase of cAMP level”. Also, the RLU at human FSHR (Log [M] -4.70) was 1000 RLU and 1200 RLU; on human FSHR (Log [M] -5.18), 1080 RLU; at human FSHR (Log [M] -5.65) it was 960 RLU and 1040 RLU; on human FSHR (Log [M] -6.13) it was 880 RLU and 920 RLU; on human FSHR (Log [M] -6.61), 840 RLU and 960 RLU; at human FSHR (Log [M] -7.08), 960 RLU and 1040 RLU. The RLU is 1280 RLU and 720 RLU on human FSHR (Log [M] -7.56); 880 RLU and 960 RLU on human FSHR (Log [M] -8.04); 1040 RLU and 1080 RLU at human FSHR (Log [M] -8.52); 720 RLU and 880 RLU on human FSHR (Log [M] -8.99).
